Ki data for 27 compounds are collected here from patent US7863271B2, “2-aminobenzoxazole carboxamides as 5HT3 modulators” (Albany Molecular Research, Inc., priority 2006, dated 2011).

Where a name gives a salt, the structure may show the parent alone.

In the assay the target is T1, 5-HT3 (Homo sapiens, UniProt P46098).
T1 sequence (P46098 24-478): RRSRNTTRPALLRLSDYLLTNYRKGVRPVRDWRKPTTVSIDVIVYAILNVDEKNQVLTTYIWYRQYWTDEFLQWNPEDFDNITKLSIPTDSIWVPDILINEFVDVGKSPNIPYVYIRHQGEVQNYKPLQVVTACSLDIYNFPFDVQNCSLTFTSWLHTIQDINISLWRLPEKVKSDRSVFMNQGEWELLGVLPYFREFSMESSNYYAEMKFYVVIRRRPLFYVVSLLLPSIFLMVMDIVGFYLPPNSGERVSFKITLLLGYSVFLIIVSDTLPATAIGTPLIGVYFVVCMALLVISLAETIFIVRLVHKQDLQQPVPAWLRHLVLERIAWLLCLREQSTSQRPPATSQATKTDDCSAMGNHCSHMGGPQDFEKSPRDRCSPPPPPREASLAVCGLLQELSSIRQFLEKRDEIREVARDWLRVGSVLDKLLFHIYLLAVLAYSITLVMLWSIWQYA
The assay is described as follows: Compound affinity for the human 5-HT3 receptor (Assay B), SPA radioligand binding with [9-methyl-3H]BRL-43694. Also on record: purchased Perkin Elmer. The conditions noted are these: Assay B (method B unless otherwise annotated); read-out: 5-HT3 Ki. The procedure: Compound Affinity for the human 5-HT3 Receptor (Assay B)
The relative affinity of the various compounds for the human 5-HT3 receptor was measured in a radioligand binding assay, using a scintillation proximity assay (SPA) format. Test compounds were dissolved to 10 mM in 100% DMSO, then serially diluted at 10× assay concentrations in 100% DMSO in 96-well polypropylene plates and further diluted to 4× assay concentrations with the assay buffer. […] Binding reactions were set up in wells of PicoPlates-96 (Perkin Elmer) by adding consecutively 50 μL of each competing compound or buffer, SPA beads, the radioligand and 5-HT3 receptor membranes. After 60-min incubation at room temperature on a Nutator mixer, plates were centrifuged for 15 min at 1,500 rpm, followed by incubation in the dark for 30 min. Radioactivity was counted in the TopCount microplate counter (Perkin Elmer) for 5 min. […] Specific binding was determined by subtracting nonspecific binding from total binding. All experiments were performed in duplicate using ten concentrations of a competing ligand, with ondansetron included as a control in every run. IC50 values were determined from specific binding data using XLfit4.1 curve fitting software from IDBS Ltd. Ki values were then calculated from the Cheng-Prusoff equation.

By Ki is commonly meant the equilibrium dissociation constant of an inhibitor or competing ligand from its target. As to `CCN(C)c1nc2c(C(=O)N[C@@H]3CN4CCC3CC4)cccc2o1` [Example 83, (S)—N-(quinuclidine-8-yl)-2-(ethyl(methyl)amino)benzoxazole-4-carboxamide Hydrochloride], the Ki stood at 0.0068 µM.

On to `O=C(N[C@@H]1CN2CCC1CC2)c1cccc2oc(N3CCNCC3)nc12` [Example 22, (S)—N-(quinuclidine-8-yl)-2-(piperazin-1-yl)benzoxazole-4-carboxamide Dihydrochloride], for which the Ki is 0.321 µM.

Regarding `O=C(N[C@@H]1CN2CCC1CC2)c1cccc2oc(N3CCOCC3)nc12` [Example 10, (S)—N-(quinuclidine-8-yl)-2-morpholino-benzoxazole-4-carboxamide Hydrochloride], the Ki worked out at 0.164 µM.

On to `C[C@H]1CS(=O)(=O)C[C@H](C)N1c1nc2c(C(=O)NC3CC4CCCC(C3)N4C)cccc2o1` (stereo partly drawn) [Example 123, Endo-N-(9-methyl-9-azabicyclo[3.3.1]nonan-3-yl)-2-((3S,5S)/(3R,5R)-3,5-dimethylthiomorpholine 1,1-dioxide)benzoxazole-4-carboxamide Hydrochloride], for which the Ki turned out to be 0.057 µM.

Take `CN1[C@@H]2CCC[C@H]1C[C@@H](NC(=O)c1cccc3oc(N4CCC[C@H]4C(N)=O)nc13)C2` [Example 53, Endo-N-(9-Methyl-9-azabicyclo[3.3.1]non-3-yl)-2-((S)-2-carbamoylpyrrolidin-1-yl)benzoxazole-4-carboxamide Hydrochloride]: the Ki is 0.212 µM.

Consider `C[C@H]1CN(S(C)(=O)=O)C[C@H](C)N1c1nc2c(C(=O)NC3CC4CCCC(C3)N4C)cccc2o1` (stereo partly drawn) [Example 131, Endo-N-(9-methyl-9-azabicyclo[3.3.1]nonan-3-yl)-2-((2S,6S-2,6-dimethyl-4-(methylsulfonyl)piperazin-1-yl)benzoxazole-4-carboxamide Hydrochloride], for which the inhibition constant (Ki) was 0.001 µM.

Consider `COC(=O)N1C[C@H](C)N(c2nc3c(C(=O)NC4CC5CCCC(C4)N5C)cccc3o2)[C@@H](C)C1` (stereo partly drawn) [Example 125, Endo-(3S,5S)-Methyl 3,5-dimethyl-4-(4-(9-methyl-9-azabicyclo[3.3.1]nonan-3-ylcarbamoyl)benzoxazol-2-yl)piperazine-1-carboxylate Hydrochloride], for which the Ki came out at 0.0021 µM.

Take `Nc1nc2c(C(=O)NC3CN4CCC3CC4)ccc(F)c2o1` [Example 112, (S)—N-(quinulidin-8-yl)-2-amino-7-fluorobenzoxazole-4-carboxamide Hydrochloride]: the Ki worked out at 0.0333 µM.

For the compound `O=C(N[C@@H]1CN2CCC1CC2)c1cccc2oc(N3CCCCC3)nc12` [Example 4, (S)—N-(quinuclidine-8-yl)-2-(piperidin-1-yl)benzoxazole-4-carboxamide hydrochloride], the Ki was 0.0342 µM.

Consider `C[C@@H]1CNC[C@@H](C)N1c1nc2c(C(=O)NC3CC4CCCC(C3)N4C)cccc2o1` (stereo partly drawn) [Example 69, Endo-N-(9-Methyl-9-azabicyclo[3.3.1]nonan-3-yl)-2-((2R,6R)-2,6-dimethylpiperazin-1-yl)benzoxazole-4-carboxamide Hydrochloride], for which the Ki turned out to be 0.0327 µM.

On to `CC(C)COC(=O)N1C[C@H](C)N(c2nc3c(C(=O)NC4CC5CCCC(C4)N5C)cccc3o2)[C@@H](C)C1` (stereo partly drawn) [Example 138, Endo-N-(9-methyl-9-azabicyclo[3.3.1]nonan-3-yl)-2-((2S,6S)-4-(isobutoxycarbonyl)-2,6-dimethylpiperazin-1-yl)benzoxazole-4-carboxamide Hydrochloride], for which the Ki stood at 0.0024 µM.

With `CN1[C@@H]2CCC[C@H]1C[C@@H](NC(=O)c1cccc3oc(N4CCNCC4(C)C)nc13)C2` [Example 102, Endo-N-(9-Methyl-9-azabicyclo[3.3.1]nonan-3-yl)-2-(2,2-dimethylpiperazin-1-yl)benzoxazole-4-carboxamide Hydrochloride], the Ki was 0.0158 µM.

Consider `C[C@@H]1CN(c2nc3c(C(=O)NC4CC5CCCC(C4)N5C)cccc3o2)C[C@H](C)O1` (stereo partly drawn) [Example 17, Endo-N-(9-Methyl-9-azabicyclo[3.3.1]non-3-yl)-2-[(2S,6R)-2,6-dimethylmorpholino]benzoxazole-4-carboxamide Hydrochloride], for which the Ki was determined as 0.0542 µM.

With `C[C@H]1CN(C)CCN1c1nc2c(C(=O)NC3CC4CCCC(C3)N4C)cc(Cl)cc2o1` (stereo partly drawn) [Example 63, Endo-N-(9-methyl-9-azabicyclo[3.3.1]nonan-3-yl)-6-chloro-2-((S-2,4-dimethylpiperazin-1-yl)benzoxazole-4-carboxamide Hydrochloride], the Ki was 0.0161 µM.

With `C[C@@H]1CN(c2nc3c(C(=O)NC4CC5CCCC(C4)N5C)cccc3o2)[C@@H](C)CN1` (relative stereo) [Example 60, Endo N-(9-Methyl-9-azabicyclo[3.3.1]nonan-3-yl)-2-((2S*,5R*)-2,5-dimethylpiperazin-1-yl)benzoxazole-4-carboxamide Hydrochloride], the Ki is 0.0105 µM.

For `CNc1nc2c(C(=O)N[C@H]3C[C@H]4CCC[C@@H](C3)N4C)cccc2o1` [Example 34, Endo-N-(9-Methyl-9-azabicyclo[3.3.1]non-3-yl)-2-(methylamino)benzoxazole-4-carboxamide Hydrochloride], the Ki stood at 0.0053 µM.

For the compound `CN1C2CCCC1CC(NC(=O)c1cccc3oc(N4CCN[C@H]5CCCC[C@@H]54)nc13)C2` (stereo partly drawn) [Example 126, Endo-N-(9-Methyl-9-azabicyclo[3.3.1]nonan-3-yl)-2-((4aS,8aS)-octahydroquinoxalin-1(2H)-yl)benzoxazole-4-carboxamide Dihydrochloride], the inhibition constant Ki amounted to 0.0165 µM.

On to `CCOC(=O)N1C[C@H](C)N(c2nc3c(C(=O)NC4CC5CCCC(C4)N5C)cccc3o2)[C@@H](C)C1` (stereo partly drawn) [Example 144, Endo-N-(9-methyl-9-azabicyclo[3.3.1]nonan-3-yl)-2-((2S,6S)-4-(ethoxycarbonyl)-2,6-dimethylpiperazin-1-yl)benzoxazole-4-carboxamide Hydrochloride], for which the inhibitory constant (Ki) is 0.001 µM.

With `CC(C)[C@@H]1COCCN1c1nc2c(C(=O)NC3CC4CCCC(C3)N4C)cccc2o1` (stereo partly drawn) [Example 152, Endo-N-(9-Methyl-9-azabicyclo[3.3.1]nonan-3-yl)-2-((R)-3-isopropylmorpholino)benzoxazole-4-carboxamide Hydrochloride], the inhibition constant (Ki) is 0.075 µM.

On to `CN(C)CCN(C)c1nc2c(C(=O)N[C@H]3C[C@H]4CCC[C@@H](C3)N4C)cccc2o1` [Example 31, Endo-N-(9-methyl-9-azabicyclo[3.3.1]nonan-3-yl)-2-((2-(dimethylamino)ethyl)(methyl)amino)benzoxazole-4-carboxamide hydrochloride], for which the Ki is 0.107 µM.

For the compound `C[C@H]1CN(C(=O)N2CCCCC2)C[C@H](C)N1c1nc2c(C(=O)NC3CC4CCCC(C3)N4C)cccc2o1` (stereo partly drawn) [Example 141, Endo-N-(9-methyl-9-azabicyclo[3.3.1]nonan-3-yl)-2-((2S,6S)-2,6-dimethyl-4-(piperidine-1-carbonyl)piperazin-1-yl)benzoxazole-4-carboxamide hydrochloride], the Ki was determined as 0.0018 µM.

On to `CC(C)C[C@H]1COCCN1c1nc2c(C(=O)NC3CC4CCCC(C3)N4C)cccc2o1` (stereo partly drawn) [Example 67, Endo-N-(9-Methyl-9-azabicyclo[3.3.1]nonan-3-yl)-2-((S)-3-isobutylmorpholino)benzoxazole-4-carboxamide Hydrochloride], for which the inhibitory constant (Ki) is 0.0039 µM.

Turning to `CCC[C@H]1COCCN1c1nc2c(C(=O)NC3CC4CCCC(C3)N4C)cccc2o1` (stereo partly drawn) [Example 66, Endo-N-(9-Methyl-9-azabicyclo[3.3.1]nonan-3-yl)-2-((S)-3-propylmorpholino)benzoxazole-4-carboxamide Hydrochloride], the Ki is 0.0041 µM.

On to `CN(C)CCNc1nc2c(C(=O)N[C@H]3C[C@H]4CCC[C@@H](C3)N4C)cccc2o1` [Example 32, Endo-N-(9-Methyl-9-azabicyclo[3.3.1]nonan-3-yl)-2-(2-(dimethylamino)ethylamino)benzoxazole-4-carboxamide Trihydrochloride], for which the Ki is 0.234 µM.

As to `CN1CCCN(c2nc3c(C(=O)NC4CN5CCC4CC5)cccc3o2)CC1` [Example 12, (S)—N-(quinuclidine-8-yl)-2-(4-methyl-1,4-diazepam-1-yl)benzoxazole-4-carboxamide Dihydrochloride], the inhibition constant (Ki) came out at 0.317 µM.

On to `CN1[C@@H]2CCC[C@H]1C[C@@H](NC(=O)c1cccc3oc(N)nc13)C2` [Example 35, Endo-N-(9-Methyl-9-azabicyclo[3.3.1]non-3-yl)-2-aminobenzoxazole-4-carboxamide Hydrochloride], for which the inhibition constant Ki was determined as 0.0091 µM.

As for `C[C@H]1CN(C(=O)C2CCCCC2)C[C@H](C)N1c1nc2c(C(=O)NC3CC4CCCC(C3)N4C)cccc2o1` (stereo partly drawn) [Example 132, Endo-N-(9-methyl-9-azabicyclo[3.3.1]nonan-3-yl)-2-((2S,6S)-4-(cyclohexanecarbonyl)-2,6-dimethylpiperazin-1-yl)benzoxazole-4-carboxamide Hydrochloride], the Ki is 0.0019 µM.
